Laboratory results: patent US5656743A, “Oligonucleotide modulation of cell growth” (priority 1994, dated 1997)
Entries after “also recorded” stand apart in the source; their conditions may differ.

Key:
[1] = format: in vitro ADME; details: after 24 hours in 10% serum-containing medium
Method: (§1) Phosphorothioate oligonucleotide SEQ ID NO: 9 was labeled with [γ^32 P]ATP by T4 polynucleotide kinass to analyze cellular uptake, efflux and stability in the presence or absence of DOTMA. […] 5-15 fold more of oligonucleotide SEQ ID NO: 9 was associated with the cells in the presence of DOTMA than in its absence. 60% of the oligonucleotide localized to the nuclei after 4 hours treatment in the presence of DOTMA, approximately 50% remained in the cells 20 hours post-treatment. The stability of phosphorothioate oligonucleotides was much greater than the phosphodiester oligonucleotides. Only 40% degradation of the phosphorothioate oligonucleotide was found after 24 hours in 10% serum-containing medium. More than 50% of the phosphodiester oligonucleotide was degraded within 1 hour. DOTMA enhanced the activity of antisense oligonucleotide phosphorothioate.

[2] = test system: human tumor cells (HeLa, LOX, SN12A1); format: cell-based; details: 0.1 and 1 μM oligonucleotide + 10 μg/ml DOTMA 4 h; for inhibition of the tumors (in words): FIG. 2 panels A-C
[3] = test system: HRCC-SN12A1 cells (human renal cell carcinoma); test: Cell growth of HRCC-SN12A1 cells by counting attached cells after oligonucleotide treatment; format: cell-based
Method: HeLa S3 (ATCC CCL 2.2, human epithelioid cervix carcinoma) cells were subcultured in Dulbecco's modified Eagle Medium (D-MEM) (GIBCO BRL), supplemented with 10% fetal bovine serum (FBS) (GIBCO BRL) and 1% penicillin-streptomycin liquid (100 000 IU/ml penicillin G sodium, 10 mg/ml streptomycin sulfate in 0.85% saline) (GIBCO BRL). LOX (IMVI, human amelanotic melanoma) cells (provided by Dr. D. J. Dykes, Southern Research Institute, Birmingham, Ala.) were subcultured in RPMI 1640 medium (RPMI) (GIBCO BRL) supplemented with 10% FBS and 1% penicillin-streptomycin liquid. […] All cells were negative for mycoplasma infection as determined by a DNA stain (McGarrity, Methods in Enzymology: Cell Culture, Vol 63, p23 (Academic Press, San Diego; 1979); Freshney, Culture of Animal Cells: A Manual of Basic Techniques (Wiley-Liss, NY; 1987). […]
The effect of oligonucleotides on cell growth was determined by counting the attached cells in the 6-well plates through a phase contrast inverted microscope (Nikon Diaphot, 10×objective, 10×ocular, 4×magnification extender, total magnification: 400×). The attached cells on 10 randomly chosen fields were counted (10-200 cells/field) and the total cell number was calculated by multiplying the mean cell number by the correction factor (f6-well =6028, f24-well =1258, f10 cm dish =35,670). […]

[4] = Cellular uptake, efflux and localization of 32P-labeled oligonucleotide; format: in vitro ADME
Method: as §1

[5] = test system: LOX cells (human amelanotic melanoma); test: Cell growth of LOX cells by counting attached cells after oligonucleotide treatment; format: cell-based
Method: HeLa S3 (ATCC CCL 2.2, human epithelioid cervix carcinoma) cells were subcultured in Dulbecco's modified Eagle Medium (D-MEM) (GIBCO BRL), supplemented with 10% fetal bovine serum (FBS) (GIBCO BRL) and 1% penicillin-streptomycin liquid (100 000 IU/ml penicillin G sodium, 10 mg/ml streptomycin sulfate in 0.85% saline) (GIBCO BRL). LOX (IMVI, human amelanotic melanoma) cells (provided by Dr. D. J. Dykes, Southern Research Institute, Birmingham, Ala.) were subcultured in RPMI 1640 medium (RPMI) (GIBCO BRL) supplemented with 10% FBS and 1% penicillin-streptomycin liquid. HRCC-SN12A1 (human renal cell carcinoma) cells (established from the ascitic cells of intrarenally transplanted HRCC-bearing nude mouse and provided by Dr. I. J. Fidler, M.D., Anderson Cancer Center, Houston, Tex.)(Naito, etal., 1986) were subcultured in Eagle minimum essential medium (MEM) (GIBCO BRL), supplemented with 10% FBS, vitamins, L-glutamine, sodium pyruvate, non-essential amino acids and 1% penicillin-streptomycin liquid. All cells were negative for mycoplasma infection as determined by a DNA stain (McGarrity, Methods in Enzymology: Cell Culture, Vol 63, p23 (Academic Press, San Diego; 1979); Freshney, Culture of Animal Cells: A Manual of Basic Techniques (Wiley-Liss, NY; 1987).
Twenty-four hours after plating (1×10^5 cells into 6-well cell culture dishes), the cells growing in monolayer were gently washed once with 5 ml serum-free D-MEM, RPMI and MEM medium for HeLa S3, LOX and HRCC-SN12A1 cells, respectively. Freshly prepared serum-free mediumcontaining 10 μg/ml cationic lipid (DOTMA); Chiang, et al., J. Biol. Chem., 266:18162 (1991); Bennett, et al., J. Liposome Research, in press (1992); were mixed with oligonucleotide and preincubated at 37° C. in a humidified incubator for 15 minutes to allow formation of an oligonucleotide-cationic lipid complex. The oligonucleotide concentrations were between 0.001 and 10 μM, but for the majority of the experiments for HeLa S3 cells 0.1 μM, for LOX cells 0.03-0.05-0.1 μM, and for HRCC cells 0.1 μM concentrations were used. […]
The effect of oligonucleotides on cell growth was determined by counting the attached cells in the 6-well plates through a phase contrast inverted microscope (Nikon Diaphot, 10×objective, 10×ocular, 4×magnification extender, total magnification: 400×). The attached cells on 10 randomly chosen fields were counted (10-200 cells/field) and the total cell number was calculated by multiplying the mean cell number by the correction factor (f6-well =6028, f24-well =1258, f10 cm dish =35,670). […] The dead floating cells (viability was determined by […]) were not counted. The cell number in each well was determined before treatment, immediately after treatment, and daily after treatment for 5-7 days. […]

[6] = test system: HeLa and LOX human tumor cell lines; test: Nuclear aberrations, mitoses and cell growth in HeLa and LOX cells by light and fluorescence microscopy; format: cell-based; details: 0.2 or 0.4 μM + DOTMA 4 h
Method: HeLa and LOX human tumor cell lines were analyzed by light and fluorescence microscopy after 4 hours treatment with 0.2 or 0.4 μM antisense (SEQ ID NO: 9) or sense (SEQ ID NO: 16) oligonucleotide with DOTMA. […] Nucleolar unraveling and fragmentation and chromatin alterations were observed. In some LOX cells chromatin was condensed as in prophase arrest. In HeLa cells, chromatin was condensed and compacted. Decreased mitoses correlated with decreased ^3 H-thymidine incorporation. Cell growth decreased 70-80%.

human LOX ascites tumor = test: Tumor growth inhibition, i.p. LOX ascites tumor in nude mice; format: in vivo; details: complexed with DOTMA
Method: Intraperitoneally (i.p.) transplanted, exponentially growing LOX ascites tumor cells were harvested from nude mice, washed and resuspended in serum-free RPMI medium. A total of 2×10^6 viable cells (determined by trypan blue exclusion) in 0.5 ml RPMI medium were injected i.p. into the homozygous mutant, HSd: Athymic Nude-nu male mice (Sambrook, et al., 1989). Treatment was started 1 day after the i.p. injection of tumor cells and the oligonucleotide in the presence of DOTMA was given i.p. on days 1, 3 and 5. Tumor growth was followed by daily inspection of the animals. The experiments were terminated when the ascite tumors were visible both in controls and treated animals, generally by day 14. All animal experimentation followed the guidelines of the Baylor College of Medicine and New York Academy of Sciences.
The tumor growth inhibitory effect of antisense oligonucleotide SEQ ID NO: 9 was studied on i.p. injected LOX tumor cells. […] No tumor growth inhibition or other toxic effects occurred after treatment with PBS alone or DOTMA in PBS (1-10 mg/kg bodyweight).

[7] = test system: HeLa S3 cells (human epithelioid cervix carcinoma); test: Cell growth of HeLa cells by counting attached cells after oligonucleotide treatment; format: cell-based; details: for cell growth inhibitory effect: HeLa cells (FIG. 1A), 0.1-0.5 μM oligonucleotide + 10 μg/ml DOTMA, ±SD; for cell growth inhibitory effect / inhibition of cell growth (in words): serum-free, 4 h; for log HeLa cell kill: 2 days after treatment, oligonucleotide complexed with DOTMA 4 h; for inhibition of cell growth (in words): oligonucleotide + 10 μg/ml DOTMA
[8] = two days after treatment, DOTMA 4 h serum-free
[9] = 32P-labeled phosphorothioate oligonucleotide

CACCCGCCTT GGCCTCCCAC (antisense CACCCGCCTTGGCCTCCCAC; chemistry not given here) [SEQ ID NO: 9, p120 antisense oligonucleotide, 3' UTR]
degradation [1]: 40%
inhibition of the tumors (in words) [2]: marked inhibition
log-cell kill ([2]; especially 3-4 days after treatment): 0.5 to 1.5 log
maximum cytocidal effect (log cell kill) ([3]; 4 days after treatment): 1.3 log
log cell kill [3, 8]: 0.7 log
oligonucleotide associated with the cells, presence versus absence of DOTMA [4, 9]: 5-15 fold
time of treatment to plateau of cellular uptake [4, 9]: 1 h
oligonucleotide remaining in the cells ([4]; 20 hours post-treatment): approximately 50%
oligonucleotide localized to the nuclei ([4]; after 4 hours treatment in the presence of DOTMA): 60%
log cell kill, single treatment ([5]; 0.05 μM + DOTMA, one 4 h treatment day 1 after seeding): 1.4 log
effect of repeated treatment ([5]; 0.05 μM + DOTMA, two 4 h treatments on days 1 and 3): killed most LOX cells and no recovery was found on day 8
IC50 ([5]; oligonucleotide + DOTMA 4 h serum-free, two days after treatment (FIG. 4), read-out: IC50, inhibition of cell growth): 10 nM
log cell kill [5, 8]: 1.2 log
decrease of cell growth [6]: 70-80%
decrease of mitotic cells ([6]; at 8 to 72 hours post-treatment): 70%
decrease of mitotic cells ([6]; at 4 hours): 50%
inhibition of cell growth in vivo (human LOX ascites tumor; 0.65 mg/kg bodyweight i.p. days 1, 3, 5): 80%
inhibition of cell growth in vivo (human LOX ascites tumor; 6.5 mg/kg bodyweight i.p. days 1, 3, 5): 90%
IC50, tumor growth inhibition in vivo (human LOX ascites tumor; i.p. days 1, 3, 5): 0.26 mg/kg bodyweight
cell growth inhibitory effect [7]: 87.6±11.3%
effect of repeated treatment ([7]; HeLa cells, 0.1 μM + DOTMA, two 4 h treatments on days 1 and 3): additive effects
log HeLa cell kill ([7]; HeLa cells): 0.7 log
inhibition of cell growth in complete medium ([7]; HeLa cells, DOTMA-mediated treatment in complete (10% FBS) medium, compared to serum-free (FIG. 1C)): very slight
inhibition of cell growth (in words) ([7]; HeLa cells): most consistent and greatest inhibition of cell growth; also recorded: inhibitory activity
IC50 ([7]; HeLa cells, oligonucleotide + DOTMA 4 h serum-free, two days after treatment (FIG. 4), read-out: IC50, inhibition of cell growth): 20 nM

CACCCGCCTT GGCCTCCCAG (antisense CACCCGCCTTGGCCTCCCAG; chemistry not given here) [SEQ ID NO: 14, p120 antisense oligonucleotide, 3' UTR]
inhibition of the tumors (in words) [2]: marked inhibition
inhibition of cell growth (in words) ([7]; HeLa cells): inhibitory activity

CACGCCTCCC GACTCTGCCC (DNA CACGCCTCCCGACTCTGCCC; chemistry not given here) [SEQ ID NO: 15, reference compound]
log HeLa cell kill ([7]; HeLa cells): 0.2 log

GTGGGAGGCC AAGGCGGGTG (sense GTGGGAGGCCAAGGCGGGTG; chemistry not given here) [SEQ ID NO: 16, reference compound]
inhibition of cell growth (in words) ([7]; HeLa cells): No inhibitory effect

TCCCAGTCCC ACCTCCCATC (antisense TCCCAGTCCCACCTCCCATC; chemistry not given here) [SEQ ID NO: 6, p120 antisense oligonucleotide, 3' UTR]
cell growth inhibitory effect [7]: 70.7±24.8%
